Here are results for 10 molecules from ChEMBL document CHEMBL1201862, “PubChem BioAssay data set” (2004).

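Assay format: 96-well plates, 48-hour exposure. Abbreviation: GI50, concentration required for 50% inhibition of growth.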 Calls of active or inactive are those of the source. Rule as the data show it: active = GI50 up to about 1.1 µM and inactive = higher. Bounds are passed on as bounds.

Among the test systems are CCRF-CEM; DU-145; HCT-15; IGROV-1; LOX IMVI; MCF7; NCI-H226; NCI-H23; NCI-H460; NCI-H522; PC-3; SK-MEL-2; SK-MEL-5; SN12C; SNB-19; SR; TK-10; U-251; UACC-257; COLO 205.
What all share (assay): NCI anticancer screen, dose series, 48 h

Regarding `N#Cc1c(N)nc(S)c(C#N)c1-c1ccccc1`, the GI50 with CCRF-CEM is > 100 µM (inactive); in the test with DU-145 it was > 100 µM (inactive); in the test with HCT-15, more than 100 µM; in the test with IGROV-1, > 100 µM (inactive); with LOX IMVI, > 100 µM (inactive); in the test with MCF7 it was > 100 µM (inactive). The GI50 is > 100 µM (inactive) with NCI-H226; > 100 µM (inactive) in the test with NCI-H23; > 100 µM (inactive) with NCI-H460; 47.3 µM (inactive) in the test with NCI-H522; > 100 µM (inactive) with PC-3; 82.4 µM (inactive) in the test on SK-MEL-2. The GI50 in the test with SK-MEL-5, with SN12C, with SNB-19, in the test with SR, in the test on TK-10 and in the test with U-251 was > 100 µM (inactive) in each case. For the same molecule, in the test with UACC-257, the GI50 was > 100 µM (inactive).
For the molecule `CN(C)c1ccc(/C=c2\c3cc([N+](=O)[O-])ccc3n3c2cc(-c2ccccc2)[n+]3C)cc1`, the GI50 with CCRF-CEM was 0.601 µM (active); in the test on COLO 205, 0.297 µM (active); in the test with DU-145, 1.95 µM (inactive); in the test on HCT-15 it was 15.5 µM; in the test on IGROV-1, 0.964 µM (active); in the test on LOX IMVI it was 1.57 µM (inactive). Further, the GI50 is 0.791 µM (active) in the test with MCF7; 2.75 µM (inactive) with NCI-H226; 2.75 µM (inactive) in the test with NCI-H23; 3.13 µM (inactive) in the test on NCI-H460; 0.497 µM (active) in the test with NCI-H522; 1.91 µM (inactive) in the test with PC-3. The GI50 with SK-MEL-2 is 0.521 µM (active); with SK-MEL-5 it was 0.318 µM (active); with SN12C it was 0.454 µM (active); with SNB-19, 0.925 µM (active); in the test with SR, 0.29 µM (active); with TK-10, 2.64 µM (inactive). In addition, the GI50 with U-251 is 0.327 µM (active); with UACC-257, 0.918 µM (active).
On to `O=C(Nc1cccc2cnccc12)c1cc2c(cc1Cl)Sc1nccn1S2(=O)=O`, for which the GI50 in the test on COLO 205 was 15.3 µM (inactive); in the test on DU-145 it was 13.6 µM (inactive); with HCT-15, 8.71 µM; with IGROV-1 it was 15.8 µM (inactive); in the test on LOX IMVI it was 5.65 µM (inactive); with MCF7 it was 5.36 µM (inactive). The GI50 was 18.4 µM (inactive) in the test with NCI-H226; 6.67 µM (inactive) in the test on NCI-H23; 7.82 µM (inactive) in the test with NCI-H460; 13.1 µM (inactive) with NCI-H522; 23.3 µM (inactive) with PC-3; 13.5 µM (inactive) with SK-MEL-2. In addition, the GI50 in the test with SK-MEL-5 is 12.1 µM (inactive); with SN12C, 14.4 µM (inactive); in the test on SNB-19 it was 17.9 µM (inactive); with SR it was 3.28 µM (inactive); with TK-10, 24.4 µM (inactive); with U-251, 10.4 µM (inactive). In the test on UACC-257, the GI50 is 18.1 µM (inactive).
In the case of `CC(=O)OCC1OC(N2C(c3ccccc3)=CC(c3ccccc3)C(C#N)=C2S)C(OC(C)=O)C(OC(C)=O)C1OC(C)=O` (stereo not given), the GI50 is > 61.2 µM (inactive) in the test with CCRF-CEM; 1.89 µM (inactive) with COLO 205; 26.4 µM (inactive) with DU-145; 48.5 µM in the test with HCT-15; 18.2 µM (inactive) with IGROV-1; 4.49 µM (inactive) in the test on LOX IMVI. Also, the GI50 is 19.4 µM (inactive) in the test with MCF7; 12.7 µM (inactive) with NCI-H226; 7.41 µM (inactive) in the test with NCI-H23; 5.48 µM (inactive) with NCI-H460; 7.89 µM (inactive) with NCI-H522; 2.77 µM (inactive) with PC-3. The GI50 was 2.27 µM (inactive) with SK-MEL-2; 1.64 µM (inactive) in the test with SK-MEL-5; 3.56 µM (inactive) in the test on SN12C; 5.96 µM (inactive) with SNB-19; 42 µM (inactive) in the test with SR; 22.2 µM (inactive) in the test with TK-10. For the same molecule, the GI50 was 3.57 µM (inactive) with U-251 and 3.63 µM (inactive) in the test with UACC-257.
With `Brc1ccccc1/C=N\C12CC3CC(CC(C3)C1)C2`, the GI50 with CCRF-CEM is 4.54 µM (inactive); in the test with COLO 205 it was > 100 µM (inactive); with DU-145, > 100 µM (inactive); in the test with HCT-15, 1.99 µM; in the test on IGROV-1 it was > 100 µM (inactive); in the test on LOX IMVI it was 19.9 µM (inactive). Moreover, the GI50 was 7.24 µM (inactive) with MCF7; > 100 µM (inactive) in the test on NCI-H226; > 65 µM (inactive) in the test on NCI-H23; > 100 µM (inactive) with NCI-H460; > 100 µM (inactive) in the test with NCI-H522; 43.2 µM (inactive) in the test with PC-3. For the same molecule, the GI50 in the test with SK-MEL-2 is > 81.3 µM (inactive); in the test with SK-MEL-5 it was 51.6 µM (inactive); in the test on SN12C, > 63.1 µM (inactive); in the test on SNB-19, > 100 µM (inactive); with SR it was 1.15 µM (inactive); in the test on TK-10 it was > 100 µM (inactive). Further, the GI50 was 12.9 µM (inactive) with U-251 and > 79.4 µM (inactive) with UACC-257.
With `CCOC1OC(=O)c2cc3ccc4c(c3c(-c3ccc5c(c3)OCO5)c21)OCO4` (stereo not given), the GI50 is 9.33 µM (inactive) in the test with CCRF-CEM; 1.55 µM (inactive) in the test on COLO 205; 70.5 µM (inactive) in the test on DU-145; 4.85 µM in the test with HCT-15; 4.6 µM (inactive) in the test on IGROV-1; 3.79 µM (inactive) in the test with LOX IMVI. Further, the GI50 in the test on MCF7 is 9.57 µM (inactive); with NCI-H226, 4.71 µM (inactive); in the test on NCI-H23, 3.72 µM (inactive); in the test with NCI-H460, 3.56 µM (inactive); in the test with NCI-H522, 0.687 µM (active); with PC-3 it was 10.1 µM (inactive). For the same molecule, the GI50 in the test with SK-MEL-2 is 12.8 µM (inactive); in the test with SK-MEL-5, 2.72 µM (inactive); with SN12C, 10.9 µM (inactive); in the test on SNB-19, 8.95 µM (inactive); in the test on SR, 2.04 µM (inactive); with TK-10, 4.75 µM (inactive). Moreover, the GI50 is 5.68 µM (inactive) in the test on U-251 and 9.79 µM (inactive) with UACC-257.
For `O=C1/C(=C\Oc2ccc(F)cc2)N2CCC1CC2`, the GI50 is 34.4 µM (inactive) with CCRF-CEM; > 100 µM (inactive) in the test with COLO 205; 0.544 µM (active) with DU-145; 70.6 µM with HCT-15; 88.3 µM (inactive) in the test with IGROV-1; 25.7 µM (inactive) in the test on LOX IMVI. The GI50 in the test on MCF7 was 49 µM (inactive); in the test with NCI-H226, 35.5 µM (inactive); with NCI-H23, 54.5 µM (inactive); in the test on NCI-H522, 50.8 µM (inactive); in the test on PC-3, > 100 µM (inactive); in the test with SK-MEL-2 it was 61.2 µM (inactive). Besides, the GI50 was 63.5 µM (inactive) in the test on SK-MEL-5; 94.6 µM (inactive) with SN12C; 56.6 µM (inactive) with SNB-19; 16.4 µM (inactive) in the test with SR; 55.3 µM (inactive) in the test with TK-10; 77.1 µM (inactive) with U-251. In addition, the GI50 in the test with UACC-257 was 23.7 µM (inactive).
`CSC1=NC(=O)CCN1C1OCC(OC(C)=O)C(OC(C)=O)C1OC(C)=O` (stereo not given): the GI50 was 5.9 µM (inactive) in the test with CCRF-CEM; 23.9 µM (inactive) with COLO 205; 19.9 µM (inactive) in the test on DU-145; 18.5 µM in the test on HCT-15; 15.1 µM (inactive) in the test on IGROV-1; > 10 µM (inactive) with LOX IMVI. Besides, the GI50 is 63.8 µM (inactive) with MCF7; 18.7 µM (inactive) in the test with NCI-H226; 20.8 µM (inactive) in the test on NCI-H23; 10.4 µM (inactive) in the test on NCI-H460; 18.2 µM (inactive) with NCI-H522; 15 µM (inactive) in the test on PC-3. Further, the GI50 is 13.6 µM (inactive) in the test on SK-MEL-2; 10.9 µM (inactive) in the test on SK-MEL-5; 20.7 µM (inactive) in the test on SN12C; 16.3 µM (inactive) in the test with SNB-19; 4.51 µM (inactive) in the test with SR; 17.1 µM (inactive) in the test on TK-10. Moreover, the GI50 with U-251 was 15.8 µM (inactive); in the test with UACC-257, 18.4 µM (inactive).
For `CC(C)[C@H]1NC(=O)[C@H]2N=C(O[C@@H]2C)[C@@H]2CCCN2C(=O)[C@H](Cc2ccccc2)NC(=O)[C@@H]2CSC(=N2)[C@@H](Cc2ccccc2)NC(=O)[C@@H]2CSC1=N2`, the GI50 with CCRF-CEM was > 100 µM (inactive); with COLO 205, > 100 µM (inactive); in the test with DU-145, > 100 µM (inactive); with HCT-15, more than 100 µM; in the test with IGROV-1, 41.1 µM (inactive); in the test on LOX IMVI it was 75.3 µM (inactive). The GI50 is > 100 µM (inactive) in the test with MCF7; > 100 µM (inactive) in the test with NCI-H226; > 100 µM (inactive) in the test with NCI-H23; 58.2 µM (inactive) with NCI-H522; 37.5 µM (inactive) in the test on PC-3; 85.9 µM (inactive) in the test on SK-MEL-2. The GI50 in the test on SK-MEL-5 is 95.9 µM (inactive); in the test with SN12C it was > 100 µM (inactive); with SNB-19, > 100 µM (inactive); in the test on SR it was > 100 µM (inactive); with TK-10, > 100 µM (inactive); with U-251, > 100 µM (inactive). Besides, in the test on UACC-257, the GI50 is > 100 µM (inactive).
On to `OCc1cccc(Nc2nc(O)c3[nH]cnc3n2)c1`, for which the GI50 in the test with CCRF-CEM was > 100 µM (inactive); in the test with COLO 205, > 100 µM (inactive); in the test with DU-145, > 100 µM (inactive); in the test on HCT-15, more than 100 µM; in the test with IGROV-1, > 100 µM (inactive); in the test on LOX IMVI, > 100 µM (inactive). For the same molecule, the GI50 in the test with MCF7, in the test on NCI-H226, in the test with NCI-H23, in the test on NCI-H522, in the test with PC-3 and with SK-MEL-2 was > 100 µM (inactive) each time. Besides, the GI50 in the test with SK-MEL-5, with SN12C, in the test on SNB-19, with SR, in the test with TK-10 and in the test on U-251 was > 100 µM (inactive) each time. Also, the GI50 in the test on UACC-257 is > 100 µM (inactive).
